Measured values as given in patent US8501679B2, “Cyclic, cystein-free protein” (priority 2007, dated 2013).
Entries after “also recorded” stand apart in the source; their conditions may differ. Where a SMILES comes first, the peptide text is derived from it. Bridges are numbered along the chain shown (N, C = ends).

How the values were obtained:
[1] = tested on: sodium ion channels of H441 cells; experiment: Activation of ion channels of human epithelial cells, patch-clamp (whole cell / cell-attached); assay type: cell-based; settings: FIG. 2A/2B
Text: Furthermore, a method common in laboratories is to detect the activation of ion channels by means of patch-clamp experiments, and this is described, for example, in Clunes M. T. et al, J Physiol Volume 557, No. 3, 809-819 (Jun. 15, 2004). For patch-clamp examinations of ion channels, a glass cannula is stretched thin and filled with a neutral buffer solution. The glass cannula (patch-clamp pipette) is carefully pressed onto an intact epithelial cell. A piece of membrane is located below the pipette. An electrical resistance is thereby produced between the interior of the pipette and the external solution. An electrode attached to a sensitive amplifier dips into the pipette solution.
The electrophysiological experiments were performed on human H441 cells. H441 cells are human lung epithelial cells which are involved in the diffusion of water and electrolytes in the lungs.
The H441 cells were obtained from the American Tissue Culture Collection and cultivated in conventional cell culture vessels in RPMI 1640 medium (Invitrogen). […]
This protocol was carried out by adding proteins comprising amino acid sequence SEQ ID NO:1 or SEQ ID NO:2 as well as the sodium channel inhibitor amiloride. The current dissipations thus obtained were stored and analyzed by means of the program PCLAMP 6.0.

[2] = tested on: pulmonary oedema / acute lung injury in Wistar rats; experiment: Experimental animal study pulmonary oedema: lungs rinsed with acidified saline, arterial oxygen content; assay type: in vivo, rat; settings: for improvement in the lung function (increased oxygen content in arterial blood): laboratory animals, injected into the lungs as a fog or aqueous solution, within 3 to 5 hours; for oxygen content of the arterial blood, % relative to the value before rinsing the lungs / oxygen content in the blood after administering protein: rat; for oxygen content of the arterial blood, % relative to the value before rinsing the lungs: 125 μg protein intratracheal, 180 minutes after rinsing the lungs, 20% at 60 minutes and without protein; for oxygen content in the blood after administering protein: intratracheal as a fog one hour after lung rinsing, FIG. 3A/3B
Experimental: For the simulation of an acute lung injury and for the formation of a pulmonary oedema, the lungs of laboratory animals, e.g., mice or rats, can be rinsed several times with an acidified saline solution in a manner common in laboratories (for example, according to Isik F. et al., Eur J Cardiothorac Surg (2005); 28: 301-305). The result is a decrease in lung function.
Male Wistar rats (weighing from 250 g to 350 g) are anesthetized with Rompun® (0.02 ml/100 g) and Ketavet® (0.1 ml/100 g). The respiration is done with a cycle of 72 blows/minute, with an inhalation time of 0.2 seconds and an exhalation time of 0.5 seconds. The body temperature ranges, on average, from 37° C. to 39° C. Under normal conditions, the PaO2 (arterial oxygen partial pressure) ranges from 500 to 550 mm Hg.
For the simulation of an acute lung injury and for the formation of a pulmonary oedema, the lungs are rinsed 7 to 9 times with an acidified saline solution (pH 5).
After one hour, the proteins comprising amino acid sequence SEQ ID NO:1 or SEQ ID NO:2, dissolved in sterile saline solution, are administered intratracheally as a fog (maximum volume administered: 0.5 ml).
At intervals of 60 minutes each, arterial blood (0.1 ml) is withdrawn from the animals, and the oxygen content is determined in % relative to the normal value.
The verification of the stimulating effect of a protein according to the present invention, e.g., of a protein comprising amino acid sequence SEQ ID NO:1, SEQ ID NO:2 or SEQ ID NO:3, on the lung function is made via experimental animal studies in which a pulmonary oedema is induced. The experimental procedure is described in Example 5.
For the intratracheal inhalation, 125 μg protein are, in each case, dissolved in 150 mM saline solution pH 7.3. The oxygen content of the arterial blood is measured immediately before rinsing the lungs, 60 minutes after rinsing the lungs and 180 minutes after rinsing the lungs. The oxygen content immediately before rinsing the lungs is determined to be 100%. 60 minutes after the respective final lung rinsing, the oxygen content in the blood amounts to, on average, only 20%. Within 3 hours, the percentage oxygen content rises to values of […]

[3] = tested on: human immune cells in fresh blood (IL-6 release); experiment: Determination of inflammatory parameters: release of Interleukin-6 from human fresh blood (ELISA); assay type: cell-based; settings: for Concentration of Interleukin-6 (average of three measurements): human fresh blood, 24 hours at 37° C.; for release of the inflammation marker IL-6: human immune cells from blood incubated with the substance
Experimental: For the examination, human immune cells from the blood are mixed with protein according to the present invention at a small concentration and are incubated in a manner common in laboratories. Subsequently, marker proteins for inflammations are determined in cell-free culture media by conventional methods.
Fresh human blood has a very sensitive reaction to pro-inflammatory molecules, among other things, with a release of the inflammation marker Interleukin-6 (IL-6). For determining the pro-inflammatory reaction, samples of human fresh blood at concentrations of the protein comprising amino acid sequence SEQ ID NO:2 were incubated at the following concentrations from 1 ng/ml to 10 μg/ml. After an incubation of 24 hours at 37° C., the inflammation marker Interleukin-6 was quantitatively determined in the solution via ELISA. LPS served as a positive control (concentrations of 3 ng/ml and 100 ng/ml).
In doing so, the measured data, which are indicated in TABLE 1 and which show the influence of the peptide protein comprising amino acid sequence SEQ ID NO:2 in comparison to LPS on the release of the inflammation marker Interleukin-6 from blood cells, were obtained.

SMILES | activation of the sodium ion channels (amplitude of electrical signal) [1] | improvement in the lung function (increased oxygen content in arterial blood) [2] | oxygen content of the arterial blood, % relative to the value before rinsing the lungs [2] [%] | oxygen content in the blood after administering protein [2] | Concentration of Interleukin-6 (average of three measurements) ([3]; 1 ng/ml) | Concentration of Interleukin-6 (average of three measurements) ([3]; 3 ng/ml) | Concentration of Interleukin-6 (average of three measurements) ([3]; 1 μg/ml) | Concentration of Interleukin-6 (average of three measurements) ([3]; 10 μg/ml) | release of the inflammation marker IL-6 [3]
C[C@@H]1NC(=O)CNC(=O)[C@H](CCC(=O)O)NC(=O)[C@@H]2CCCN2C(=O)[C@H]([C@@H](C)O)NC(=O)[C@H](CCC(=O)O)NC(=O)[C@H](CCCNC(=N)N)NC(=O)[C@H](CCC(N)=O)NC(=O)CNC(=O)[C@@H]2CCCN2C(=O)[C@H](CO)NC(=O)[C@@H](N)CCCCNC(=O)CC[C@@H](C(=O)O)NC(=O)[C@H](Cc2ccc(O)cc2)NC(=O)[C@H](Cc2c[nH]c3ccccc23)NC(=O)[C@@H]2CCCN2C(=O)[C@H](CCCCN)NC(=O)[C@H](C)NC(=O)[C@H](CCC(=O)O)NC1=O [SEQ ID NO:2, (NH2)Lys-Ser-Pro-Gly-Gln-Arg-Glu-Thr-Pro-Glu-Gly-Ala-Glu-Ala-Lys-Pro-Trp-Tyr-Glu(COOH)] | activation of the sodium ion channels | distinct improvement in the lung function | 75 | increased | less than 0.5 pg/ml | less than 0.5 pg/ml | less than 0.5 pg/ml | less than 0.5 pg/ml | cannot be detected; also recorded: virtually no inflammation marker IL-6 is released
CC[C@H](C)[C@H](NC(=O)[C@H](C)NC(=O)[C@H](CO)NC(=O)[C@H](CC(C)C)NC(=O)[C@H](CC(C)C)NC(=O)[C@H](CC(N)=O)NC(=O)[C@@H](N)C(C)C)C(=O)N[C@H]1CCCCNC(=O)CC[C@@H](C(=O)N2CCC[C@H]2C(=O)N[C@H](C(=O)N[C@@H](Cc2ccc(O)cc2)C(=O)N[C@@H](CC(C)C)C(=O)NCC(=O)O)[C@@H](C)CC)NC(=O)[C@H](Cc2ccc(O)cc2)NC(=O)[C@H](Cc2c[nH]c3ccccc23)NC(=O)[C@@H]2CCCN2C(=O)[C@H](CCCCN)NC(=O)[C@H](C)NC(=O)[C@H](CCC(=O)O)NC(=O)[C@H](C)NC(=O)CNC(=O)[C@H](CCC(=O)O)NC(=O)[C@@H]2CCCN2C(=O)[C@H]([C@@H](C)O)NC(=O)[C@H](CCC(=O)O)NC(=O)[C@H](CCCNC(=N)N)NC(=O)[C@H](CCC(N)=O)NC(=O)CNC(=O)[C@@H]2CCCN2C(=O)[C@H](CO)NC1=O [SEQ ID NO:1] (H-VNLLSAIKSPGQRETPEGAEAKPWYEPIYLG-OH; lactam 8-26) | activation of the sodium ion channels | distinct improvement in the lung function | 62 | increased | – | – | – | – | cannot be detected
